Where a name gives a salt, the structure may show the parent alone.
Assays:
[1] = system: CCR2 expressing cells (CD11b+Ly6c+Hi) in peripheral blood; assay: In vivo depletion assay, flow cytometry of peripheral blood (Example 201); design: species or system human CCR2 knock-in mice (C57 background); settings: hCCR2 knock-in mice, IV 0.1 mpk compound + 10 mpk anti-cotinine antibody (SEQ ID NO: 13/14), peripheral blood at 48 hr
Procedure: Stock solution preparation. Stock solutions of compounds of Formula (I) were prepared at 20 mg/mL and 100 mg/mL in […] for PK/PD and dose tolerability studies respectively. Stock solutions were stored at […] until further usage. on the day of experiment, the stock Solution of the compound of Formula (I) was removed from storage at […] and thawed at room temperature. Anti-cotinine antibody having a heavy chain sequence of SEC ID NO: 13 and a light chain sequence of SEQ ID NO: 14 (rabbit variable region sequence with mouse IgG2a Fc domain), if required was removed from storage at −80° C. and thawed at room temperature. Antibody vials were immediately transferred into wet ice after thawing. Compounds of Formula (I) were further diluted in DMSO as per experimental requirements.
The formulation composition was Saline: DMSI: PBS.
Saline was added based on the quantity required and then stock solution of the compound of Formula (I) prepared in DMSO, followed by addition of antibody in PBS. Formulations were incubated at room temperature for 30 minutes before administration to the mouse. DMSO was used at 1 to % (v/v) in the final formulation.
After bleeding, each mouse was sacrificed by cervical dislocation. […] Flow Cytometry Analysis:
CCR2 depletion in peripheral blood was determined by flow cytometry. Briefly, peripheral blood was collected from all animals at the end of study termination and processed. Blood samples were lysed using 1×RBC Lysis buffer and the resulting cell pellet was washed twice in FACS buffer (HBSS containing 5% FBS). Cells were subjected to Fc blocking using mouse Fc block from Biolegend (Trustain, anti-mouse CD16/32, Cat: 101319) to block non-specific binding followed by surface staining for immune markers (CD45, CD3, CD11 b, Ly6C, human CCR2). Surface staining was done for 30 minutes in ice and cells were washed twice to remove unbound antibodies. Cells were stained with 7AAD to determine viability and acquired on BD FACSVerse flow cytometer. Appropriate FMO controls and single-color controls were included in the experiment for gating and compensation respectively.
Percent depletion of CD11 b+Ly6c+Hi cells and CCR2 expression for the different treatment groups was determined.

[2] = system: endogenous target monocytes in human PBMC; assay: PBMC ex vivo monocyte depletion flow cytometry assay (Example 200); assay type: cell-based; settings: with anti-cotinine antibody (SEQ ID NO: 11/12), 18-24 hours, EC50 in molar, read-out: Ex Vivo Depletion Assay pEC50 (converted)
How it was run: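 Monocyte depletion is reported as pEC50, averaged or given individually across runs, and read by flow cytometry staining CD45, CD14 and CD4 with a viability dye. Compounds, diluted four-fold over 11 points from 1 mM DMSO stocks, were combined with 30 μg/mL Fc-enhanced anti-cotinine antibody and human PBMC, then incubated 18-24 h at 37° C.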

## CC(C)N(C)[C@@H]1CC[C@H](N2CC[C@H](Nc3ncnc4ccc(C(F)(F)F)cc34)C2=O)[C@H](NC(=O)CNC(=O)[C@H]2CC[C@@H](NC(=O)COCCOCCNC(=O)[C@H]3CC(=O)N(C)[C@@H]3c3cccnc3)CC2)C1 [Example 136, (2S,3S)-N-(2-(2-(2-(((1S,4R)-4-((2-(((1R,2S,5R)-5-(Isopropyl(methyl)amino)-2-((S)-2-oxo-3-((6-(trifluoromethyl)quinazolin-4-yl)amino)pyrrolidin-1-yl)cyclohexyl)amino)-2-oxoethyl)carbamoyl)cyclohexyl)amino)-2-oxoethoxy)ethoxy)ethyl)-1-methyl-5-oxo-2-(pyridin-3-yl)pyrrolidine-3-carboxamide]
[1]
  % Depletion of CCR2 expressing cells: 88%
[2]
  EC50: 10000 pM

## CC(C)N(C)[C@@H]1CC[C@H](N2CC[C@H](Nc3ncnc4ccc(C(F)(F)F)cc34)C2=O)[C@H](NC(=O)C2CCN(CCCCCCCCNC(=O)[C@H]3CC(=O)N(C)[C@@H]3c3cccnc3)CC2)C1 [Example 144, N-((1R,2S,5R)-5-(Isopropyl(methyl)amino)-2-((S)-2-oxo-3-((6-(trifluoromethyl)quinazolin-4-yl)amino)pyrrolidin-1-yl)cyclohexyl)-1-(8-((2S,3S)-1-methyl-5-oxo-2-(pyridin-3-yl)pyrrolidine-3-carboxamido)octyl)piperidine-4-carboxamide, 3Formic acid salt]
[1]
  % Depletion of CCR2 expressing cells: 85.67%
[2]
  EC50: 501 pM

## CC(C)N(C)[C@@H]1CC[C@H](N2CC[C@H](Nc3ncnc4ccc(C(F)(F)F)cc34)C2=O)[C@H](NC(=O)[C@H]2CC[C@H](N3CCN(CCCCCCCCNC(=O)[C@H]4CC(=O)N(C)[C@@H]4c4cccnc4)CC3)CC2)C1 [Example 146, (2S,3S)-N-(8-(4-((1R,4r)-4-(((1R,2S,5R)-5-(Isopropyl(methyl)amino)-2-((S)-2-oxo-3-((6-(trifluoromethyl)quinazolin-4-yl)amino)pyrrolidin-1-yl)cyclohexyl)carbamoyl)cyclohexyl)piperazin-1-yl)octyl)-1-methyl-5-oxo-2-(pyridin-3-yl)pyrrolidine-3-carboxamide]
[1]
  % Depletion of CCR2 expressing cells: 83.08%
[2]
  EC50: 316 pM

## CC(C)N(C)[C@@H]1CC[C@H](N2CC[C@H](Nc3ncnc4ccc(C(F)(F)F)cc34)C2=O)[C@H](NC(=O)C2CCN(CCOCCOCCOCCOCCNC(=O)[C@H]3CC(=O)N(C)[C@@H]3c3cccnc3)CC2)C1 [Example 147]
[1]
  % Depletion of CCR2 expressing cells: 77%
[2]
  EC50: 631 pM

## CC(C)N(C)[C@@H]1CC[C@H](N2CC[C@H](Nc3ncnc4ccc(C(F)(F)F)cc34)C2=O)[C@H](NC(=O)[C@H]2CC[C@@H](C(=O)NCCCN3CCN(CCCNC(=O)[C@H]4CC(=O)N(C)[C@@H]4c4cccnc4)CC3)CC2)C1 [Example 150, (1 s,4S)-N^1-((1R,2S,5R)-5-(Isopropyl(methyl)amino)-2-((S)-2-oxo-3-((6-(trifluoromethyl)quinazolin-4-yl)amino)pyrrolidin-1-yl)cyclohexyl)-N^4-(3-(4-(3-((2S,3S)-1-methyl-5-oxo-2-(pyridin-3-yl)pyrrolidine-3-carboxamido)propyl)piperazin-1-yl)propyl)cyclohexane-1,4-dicarboxamide]
[1]
  % Depletion of CCR2 expressing cells: 85.52%
[2]
  EC50: 1000 pM

## CC(C)N(C)[C@@H]1CC[C@H](N2CC[C@H](Nc3ncnc4ccc(C(F)(F)F)cc34)C2=O)[C@H](NC(=O)[C@H]2CC[C@H](N3CCN(C(=O)CCCCCCCCNC(=O)[C@H]4CC(=O)N(C)[C@@H]4c4cccnc4)CC3)CC2)C1 [Example 155, (2S,3S)-N-(9-(4-((1R,4r)-4-(((1R,2S,5R)-5-(Isopropyl(methyl)amino)-2-((S)-2-oxo-3-((6-(trifluoromethyl)quinazolin-4-yl)amino)pyrrolidin-1-yl)cyclohexyl)carbamoyl)cyclohexyl)piperazin-1-yl)-9-oxononyl)-1-methyl-5-oxo-2-(pyridin-3-yl)pyrrolidine-3-carboxamide]
[1]
  % Depletion of CCR2 expressing cells: 70%
[2]
  EC50: 251 pM

## CC(C)N(C)[C@@H]1CC[C@H](N2CC[C@H](Nc3ncnc4ccc(C(F)(F)F)cc34)C2=O)[C@H](NC(=O)CCCCOCCCCCCCCOCCCCNC(=O)[C@H]2CC(=O)N(C)[C@@H]2c2cccnc2)C1 [Example 161, (2S,3S)-N-(4-((8-((5-(((1R,2S,5R)-5-(Isopropyl(methyl)amino)-2-((S)-2-oxo-3-((6-(trifluoromethyl)quinazolin-4-yl)amino)pyrrolidin-1-yl)cyclohexyl)amino)-5-oxopentyl)oxy)octyl)oxy)butyl)-1-methyl-5-oxo-2-(pyridin-3-yl)pyrrolidine-3-carboxamide]
[1]
  % Depletion of CCR2 expressing cells: 76.67%
[2]
  EC50: 794 pM

## CC(C)N(C)[C@@H]1CC[C@H](N2CC[C@H](Nc3ncnc4ccc(C(F)(F)F)cc34)C2=O)[C@H](NC(=O)C2CCN(c3cnc(NCCOCCOCCNC(=O)[C@H]4CC(=O)N(C)[C@@H]4c4cccnc4)cn3)CC2)C1 [Example 162, N-((1R,2S,5R)-5-(Isopropyl(methyl)amino)-2-((S)-2-oxo-3-((6-(trifluoromethyl)quinazolin-4-yl)amino)pyrrolidin-1-yl)cyclohexyl)-1-(5-((2-(2-(2-((2S,3S)-1-methyl-5-oxo-2-(pyridin-3-yl)pyrrolidine-3-carboxamido)ethoxy)ethoxy)ethyl)amino)pyrazin-2-yl)piperidine-4-carboxamide]
[1]
  % Depletion of CCR2 expressing cells: 66%
[2]
  EC50: 1580 pM

## CC(C)N(C)[C@@H]1CC[C@H](N2CC[C@H](Nc3ncnc4ccc(C(F)(F)F)cc34)C2=O)[C@H](NC(=O)[C@H]2CC[C@@H](NC(=O)C3CCC4(CC3)CCN(CCNC(=O)[C@H]3CC(=O)N(C)[C@@H]3c3cccnc3)CC4)CC2)C1 [Example 170, N-((1S,4s)-4-(((1R,2S,5R)-5-(Isopropyl(methyl)amino)-2-((S)-2-oxo-3-((6-(trifluoromethyl)quinazolin-4-yl)amino)pyrrolidin-1-yl)cyclohexyl)carbamoyl)cyclohexyl)-3-(2-((2S,3S)-1-methyl-5-oxo-2-(pyridin-3-yl)pyrrolidine-3-carboxamido)ethyl)-3-azaspiro[5.5]undecane-9-carboxamide]
[1]
  % Depletion of CCR2 expressing cells: 94.75%
[2]
  EC50: 398 pM

## CC(C)N(C)[C@@H]1CC[C@H](N2CC[C@H](Nc3ncnc4ccc(C(F)(F)F)cc34)C2=O)[C@H](NC(=O)C2CCN(C3CCN(C(=O)CCOCCOCCNC(=O)[C@H]4CC(=O)N(C)[C@@H]4c4cccnc4)CC3)CC2)C1 [Example 172, N-((1R,2S,5R)-5-(Isopropyl(methyl)amino)-2-((S)-2-oxo-3-((6-(trifluoromethyl)quinazolin-4-yl)amino)pyrrolidin-1-yl)cyclohexyl)-1′-(3-(2-(2-((2S,3S)-1-methyl-5-oxo-2-(pyridin-3-yl)pyrrolidine-3-carboxamido)ethoxy)ethoxy)propanoyl)-[1,4′-bipiperidine]-4-carboxamide]
[1]
  % Depletion of CCR2 expressing cells: 80%
[2]
  EC50: 2000 pM

— patent publication US12521393B2, “Cytotoxicity targeting chimeras for CCR2-expressing cells” (GLAXOSMITHKLINE INTELLECTUAL PROPERTY DEVELOPMENT LIMITED, priority 2021, dated 2026)
